According to patent publication US7572770B2, “Use of an interleukin 1 receptor antagonist and/or pyrrolidinedithiocarbamate for the treatment or prophylaxis of type 2 diabetes” (University of Zurich, priority 2002, dated 2009):

Tests used:
human islets β-cells = experiment: β-cell apoptosis (TUNEL) and necrosis (propidium iodide) in human islets; type: cell-based; conditions: 4 days
Protocol: Islet isolation and culture. Islets were isolated from pancreases of eleven organ donors at the Department of Surgery, University of Geneva Medical Center, as described (32-34). The islet purity was >95%, as judged by dithizone staining (if this degree of purity was not primarily achieved by routine isolation, islets were handpicked). […] For long-term in vitro studies, the islets were cultured on extracellular matrix-coated plates derived from bovine corneal endothelial cells (Novamed Ltd., Jerusalem, Israel), allowing the cells to attach to the dishes and spread, preserving their functional integrity (7;35). Islets were cultured in CMRL 1066 medium containing 100 U/ml penicillin, 100 μg/ml streptomycin and 10% fetal calf serum (Gibco, Gaithersburg, Md.), hereinafter referred to as culture medium. Two days after plating, when most islets were attached and began to flatten, the medium was changed to culture medium containing 5.5, 11.1 or 33.3 mM glucose. In some experiments, islets were additionally cultured with 2 ng/ml recombinant human IL-1β, 1000 U/ml recombinant human IFNγ (ReproTech EC Ltd, London, UK), 500 ng/ml IL-1β receptor antagonist (IL-1Ra) (R&D Systems Inc., Minneapolis, Minn.), 1 ng/ml membrane bound Fas-ligand (FasL) (36) (upstate biotechnology, Lake Placid, N.Y.) or with 100 μM pyrrolidinedithiocarbamate (PDTC; Sigma; 2 h per 2 d of culture).
β-cell apoptosis. The free 3-OH strand breaks resulting from DNA degradation were detected by the terminal deoxynucleotidyl transferase-mediated dUTP nick-end labeling (TUNEL) technique (38). After washing with PBS, cultured islets were fixed in 4% paraformaldehyde (30 min, room temperature) followed by permeabilisation with 0.5% triton X-100 (4 min, room temperature). The TUNEL assay was performed according to the manufacturer's instructions (In Situ Cell Death Detection Kit, AP; Boehringer Mannheim, Germany). […] The samples were immediately evaluated by fluorescence microscopy for positively stained […] nuclei.

IL-1Ra = IL-1Ra release and mRNA in human blood monocytes; type: cell-based; conditions: leptin, 15 and 48 hours
Protocol: Human blood monocytes were isolated as described previously (37), cultured in RPMI 1640 (Invitrogen) containing 100 U/ml penicillin, 100 μg/ml streptomycin and 10% fetal calf serum and exposed to 10 or 500 nM leptin.
RNA extraction and RT-PCR. Islets were cultured in a suspension as described above. Total RNA was extracted using Rneasy mini kit (Qiagen, Basel, Switzerland) and RT-PCR was performed using the Superscript™ II Rnase H-Reverse transcriptase kIT and oligo (dT) (7) (Life technologies, Gaithersburg, Md., USA) according to the instructions from the manufacturers. The following primers were used: 5′[…]3′(SEQ ID. NO. 1)/5′[…]3′ (human IL-1Ra) (SEQ ID.NO. 2) and 5′[…]3′(SEQ ID. NO. 3)/5′[…]3′ (human IL-1β) (SEQ ID. NO. 4). PCR conditions were: denaturation for 30 seconds at 94° C., annealing for 30 seconds at 60° C., and elongation for 30 seconds at 72° C., followed for real time PCR by quantification for 5 seconds at 82° C.; repetition for 40 cycles. Saturation of PCR product occurred between 19 and 33 cycles. […] For quantitative analysis, we used the LightCycler quantitative PCR system (Roche) and performed quantitative PCR with a commercial kit (LightCycler-DNA Master SYBR Green I; Roche). […]
Cytokine release. Cytokine release was evaluated in the culture medium collected before the termination of each experiment using human IL-1β and IL-1Ra ELISA kits (R&D Systems Inc.).

| Substance | baseline apoptosis (TUNEL-positive β-cells) (human islets β-cells; 5.5 mM glucose) | glucose-induced β-cell apoptosis / DNA fragmentation (TUNEL) (human islets β-cells; 33.3 mM glucose, with IL-1Ra 500 ng/ml or PDTC 100 μM) | IL-1Ra release and mRNA in peripheral blood monocytes (IL-1Ra) |
| --- | --- | --- | --- |
| Interleukin 1 receptor antagonist [IL-1Ra] | did not significantly change baseline apoptosis | protected the β-cells from apoptosis |  |
| leptin: rh leptin (PeproTech); protein encoded by the ob gene |  |  | A similar dual effect |
